From ChEMBL document CHEMBL1149966 (Bioorg Med Chem Lett, 1997) come the findings set out here.

Where “and” joins values, the source holds several entries; their conditions need not be identical. Equal values may be shown once.

Data set [1] concerns Rattus norvegicus. The data set can be described thus: Terminal phase half-life was evaluated in vivo in rat at a dose of 5 mg/kg by intra venous administration. Particulars: iv. The format is ADME, organism-based. Set-up: dose 5 mg/kg.
Data set [2] deals with Human immunodeficiency virus 1. Nature of the data set: The activity against HIV multiply mutated strain M36M/I,V82V/A was determined from patient number 304. The format is functional, organism-based.
Data set [3] deals with Human immunodeficiency virus 1. Nature of the data set: The activity against HIV mutant strain V82A was determined from patient number 302. It counts as functional, organism-based.
Data set [4] relates to Human immunodeficiency virus 1. Nature of the data set: The activity against HIV mutant strain V82F was determined from patient number 313. It counts as functional, organism-based.
In data set [5] the test system is Human immunodeficiency virus 1. The data set can be described thus: The activity against HIV mutant strain V82S was determined from patient number 337. It counts as functional, organism-based.
The test system of data set [6] is Human immunodeficiency virus 1. The data set can be described thus: The activity against HIV was determined from patient number 129. The format is functional, organism-based.
Data set [7] concerns Human immunodeficiency virus 1. The data set can be described thus: The activity against HIV was determined from patient number 302. It counts as functional, organism-based.
For data set [8], the system named is Human immunodeficiency virus 1. The data set can be described thus: The activity against mutant HIV molecular clone wt (pNL4-3) was determined. The format is functional, organism-based.
For data set [9], the system named is Human immunodeficiency virus 1. The data set can be described thus: The activity against HIV was determined from patient number 304. The format is functional, organism-based.
For data set [10], the system named is Human immunodeficiency virus 1. The data set can be described thus: The activity against HIV was determined from patient number 313. It counts as functional, organism-based.
The subject of data set [11] is Human immunodeficiency virus 1. Nature of the data set: The activity against HIV was determined from patient number 337. It counts as functional, organism-based.
The subject of data set [12] is Human immunodeficiency virus 1. Nature of the data set: The activity against mutant HIV molecular clone V82A was determined. The format is functional, organism-based.
Data set [13] relates to Human immunodeficiency virus 1. Nature of the data set: The activity against mutant HIV molecular clone V82F was determined. The format is functional, organism-based.
The test system of data set [14] is Human immunodeficiency virus 1. The data set can be described thus: The activity against mutant HIV molecular clone V82T was determined. The format is functional, organism-based.
The subject of data set [15] is MT4. The data set can be described thus: Inhibitory potency towards recombinant HIV-1 3B in MT-4 cell was evaluated in 0% human plasma. The format is functional, cell-based.
In data set [16] the test system is MT4. Nature of the data set: Inhibitory potency towards recombinant HIV-1 3B in MT-4 cell was evaluated in 50% human plasma. It counts as functional, cell-based.
Data set [17] has as its system MT4. The data set can be described thus: Inhibitory potency towards recombinant HIV-1 3B in MT-4 cell using cytopathic effect as endpoint was evaluated in 0% human plasma. It counts as functional. Background: Damage to the host cells serves as the signal in cytopathic effect assays.
In data set [18] the test system is Rattus norvegicus. Nature of the data set: Maximum plasma concentration was evaluated in vivo in rat at a dose of 5 mg/kg by oral administration. It counts as ADME, organism-based. Set-up: dose 5 mg/kg, route oral.
The test system of data set [19] is Rattus norvegicus. Nature of the data set: Oral bioavailability in rat (dose 5 mg/kg). The format is ADME, organism-based. Particulars: in vivo.
The test system of data set [20] is Human immunodeficiency virus 1. The data set can be described thus: The activity against multiply mutated strain M36I,I54V,A71V,V82T was determined from patient number 129. It counts as functional, organism-based.

On to `CC(C)c1nc(CN(C)C(=O)N[C@@H](C(=O)N[C@@H](Cc2ccccc2)C[C@H](O)[C@H](Cc2ccccc2)NC(=O)OCc2cncs2)C(C)C)cs1`, for which the T1/2 in the data set with Rattus norvegicus [1] is 1.8 h and 1.41 h and 0.63 h. The EC50 in data set [2] was determined as 59 nM; in [3] it was 43 nM; in data set [4], 43 nM; in [5], 22 nM; in [6], 5 nM; in data set [7] it was 46 nM. Moreover, the EC50 in data set [8] came to 137 nM; in data set [9], 35 nM; in data set [10] it was 35 nM; in [11] it was 19 nM; in data set [12], 121 nM; in data set [13], 276 nM. The EC50 in data set [14] came to 352 nM; with MT4 [15], 120 nM; in the data set on MT4 [16], 880 nM. The CCIC50 in the data set with MT4 [17] came to 27 µM.

Consider `CC(C)c1nc(CN(C)C(=O)N[C@H](C(=O)N[C@@H](Cc2ccccc2)C[C@H](O)[C@H](Cc2ccccc2)NC(=O)OCc2cncs2)C(C)C)cs1` [RITONAVIR], for which the Cmax in the data set with Rattus norvegicus [18] is 1360 ng/mL and 3580 ng/mL. Further, the F with Rattus norvegicus [19] is 70.7% and 37.4% and 29.9%. Besides, the EC50 worked out at 54 nM in data set [2]; 32 nM in data set [3]; 123 nM in data set [4]; 143 nM in data set [5]; 5 nM in data set [6]; 55 nM in [8]. Further, the EC50 in data set [9] was found to be 19 nM; in [10], 35 nM; in data set [11], 35 nM; in data set [20], 65 nM; in data set [12] it was 230 nM; in [13] it was 308 nM. Also, the EC50 in data set [14] came out at 316 nM; in the data set on MT4 [15], 90 nM; in the data set on MT4 [16], 1070 nM. Besides, the CCIC50 in the data set on MT4 [17] was 35 µM.

Usually EC50 stands for the concentration giving half of the maximal effect. As a reminder, the Cmax is the highest concentration seen after dosing.
